We go through six molecules from publication PMC10458458, “Characterization of Anticancer Effects of the Analogs of DJ4, a Novel Selective Inhibitor of ROCK and MRCK Kinases” (Pharmaceuticals, 2023).

One data set concerns IGROV1. The data set can be described thus: NCI-60 screen (SRB). It counts as cell-based, human. The conditions noted are these: IGROV1 (Ovarian Cancer), 10 µM, 48 h; negative = cell death vs time zero. The source says:
(§1) The selected active compounds were screened at NCI, as a part of In Vitro Cell Line Screening Project (IVCLSP), for their effect on cell growth in 60 different cancer cell lines. The 60 human cancer cell line panel included leukemia, melanoma, non-small cell lung cancer, colon, central nervous system (CNS), ovarian, renal, prostate, and breast cancer cell lines. The detailed procedure and applications of NCI-60 cell line screening can be found at https://dtp.cancer.gov/discovery_development/nci-60/default.htm (accessed on 9 January 2023). Briefly, cells were plated in 96-well plates and incubated for 24 h. One set of cells was fixed with trichloroacetic acid at time 0 h (Tz), and SRB (sulphorhodamine B) assays were performed to quantify the cells. The remaining set of cells were treated with 10 µM single concentration of each compound and incubated for 48 h (Te) after which the cells were fixed, and the SRB assays were performed. Data are presented as percent growth relative to the control as 100% according to the following calculations:
(§2) When Te >/= Tz. Growth(%)=Te−Tz/C−Tz∗100 and when Te < Tz. (1) Growth(%)=Te−Tz/Tz∗100
(§3) Values between 0–100 indicate cell growth, zero (0) indicates no cell growth, values < 0 indicate cell death.

In a further data set the test system is SK-MEL-28. The data set can be described thus: NCI-60 screen (SRB). It counts as cell-based, human. The conditions noted are these: SK-MEL-28 (Melanoma), 10 µM, 48 h; negative = cell death vs time zero.
Text: as §1, §2, §3

The test system of another data set is SK-MEL-5. The data set can be described thus: NCI-60 screen (SRB). It counts as cell-based, human. As to conditions: SK-MEL-5 (Melanoma), 10 µM, 48 h; negative = cell death vs time zero.
Text: as §1, §2, §3

The subject of the next data set is HOP-62. The data set can be described thus: NCI-60 screen (SRB). The class given is cell-based, human. As to conditions: HOP-62 (Non-Small Cell Lung Cancer), 10 µM, 48 h; negative = cell death vs time zero.
Text: as §1, §2, §3

For another data set, the system named is MDA-MB-435. The data set can be described thus: NCI-60 screen (SRB). The class given is cell-based, human. The conditions noted are these: MDA-MB-435 (Melanoma), 10 µM, 48 h; negative = cell death vs time zero.
Text: as §1, §2, §3

Another data set concerns NCI-H322M. The data set can be described thus: NCI-60 screen (SRB). The class given is cell-based, human. The conditions noted are these: NCI-H322M (Non-Small Cell Lung Cancer), 10 µM, 48 h; negative = cell death vs time zero.
Text: as §1, §2, §3

Data set [1] can be described thus: Solubility in 100% DMSO (observation). The class given is physicochemical.
A further data set has as its target T1, MRCKα (Homo sapiens, UniProt Q5VT25).
T1 construct: purchased Invitrogen
The data set can be described thus: Cell-free biochemical kinase activity assay (pMYPT1 immunoblot). The protocol:
(§4) Cell-free biochemical kinase inhibitory activity of these compounds was evaluated at 1 µM concentration using the previously described ROCK1 kinase activity assay. Among the 27 analogs, we identified four analogs (DJ110, DJ-Allyl, DJE4, and DJ-Morpholine) with >50% inhibition of MYPT1 phosphorylation (Supplementary Figure S1). These four compounds were selected for further evaluation at 1 µM and 0.1 µM for their in vitro inhibitory activity against ROCK1, ROCK2, MRCKα, and MRCKβ kinases.
(§5) Cell-free biochemical kinase activity was assayed using published procedures. Briefly, recombinant ROCK1 (9.48 nM) or ROCK2 (8.26 nM; Invitrogen, Waltham, MA, USA) was incubated in the presence of 0.1 and 1 µM concentrations of DJ4 analogs or DMSO in ROCK-assay buffer at room temperature (RT) for 10 min. MRCKα and MRCKβ (2 ng/µL; Invitrogen) assays were performed in the assay buffer recommended by the manufacturer. Recombinant MYPT1 (20 ng/µL; Millipore) and ATP (5 µM) were added to initiate the reaction. The reaction was incubated at 30 °C for 20 min. Western blot analysis of these samples for phosphorylation of MYPT1 was performed as per the method mentioned in our earlier publication. Briefly, an equal amount of sample was loaded on Bis-Tris gel (Novex, Life Technologies, Carlsbad, CA, USA), proteins were electrophoresed and transferred to PVDF membranes. The blots were probed with anti-pMYPT1 (Thr696) or anti-MYPT1 (Millipore) antibodies.

The next data set has as its target T2, MRCKβ (Homo sapiens, UniProt Q9Y5S2).
T2 construct: purchased Invitrogen
The description is as above. The conditions noted are these: 1 µM. The protocol: as §4, §5

For another data set, the target named is ROCK1 (Homo sapiens, UniProt Q13464). Described as above. As to conditions: for inhibition at 1 µM: cell-free screen of 27 analogs, read-out: inhibition of MYPT1 phosphorylation. On the set-up: purchased Invitrogen. The protocol:
as §4, §5
Figure S1. Screening of analogs in the in vitro kinase activity assay to identify […]
Kinase inhibitory activity of the 27 compounds was evaluated by in vitro cell-free biochemical kinase activity assay. The compounds (1 µM) were incubated with recombinant ROCK1 (9.48nM), recombinant MYPT1 (a kinase substrate, 84 nM) and ATP (25 µM). Phosphorylation status of the substrate (pMYPT1) was analyzed to study the […]

The next data set deals with A549. The data set can be described thus: MTT cell growth assay, 48 h. The class given is cell-based. The conditions noted are these: Homo sapiens; A549, 48 h, 2000 cells/well; ±SE; read-out: IC50 from MTT assays. The protocol:
(§6) However, as the concentration increased from 2.5 µM onwards, the effect was reversed. Similarly, DJ-Morpholine decreased the cell growth by ~30% at 0.6215 µM, while the effect remained saturated as the concentration increased. This trend was also observed in A549 lung cancer and A375M melanoma cells.
(§7) Figure 7 DJ4 analogs reduce cell growth in melanoma, breast, and lung cancer cells. MTT assay was performed to evaluate the effect of DJ4 analogs on cell growth after 48 h of treatment. IC50 values were calculated with nonlinear least squares regression curve fit by GraphPad prism. […] The error bars indicate SD from triplicates of the experiment.
(§8) The cytotoxic effect of DJ4 was studied in H1299, H226, A549, H522, H23, and H460 non-small cell lung cancer cells. The cells were seeded into 96-well plates with confluence ([…]). The cells were further treated with DMSO or DJ4 for 72 h. To study the effects of analogs, A549, A375M, and MDA-MB-231 cells were plated with low density (2000 cells/well) in a 96-well plate and grown overnight at 37 °C (with 5% CO2). Cells were treated with the analogs at the concentration of 0–10 µM for 48 h. At the end of the treatment period, cells were incubated with a tetrazolium dye MTT (3-(4,5-dimethylthiazol-2-yl)-2,5-diphenyltetrazolium bromide) reagent (Sigma) at 37 °C for 3 h to develop formazan crystals. The media was siphoned off and crystals were dissolved in DMSO and mixed gently on rocker for 5 min. Absorbance was read at 570 nm and 630 nm (background) wavelength. IC50 values were calculated from non-linear regression curve fit by using GraphPad Prism 5.0 software.
On the technique in general: Tetrazolium dyes change colour on reduction, which living cells bring about.

A further data set deals with A375M. The data set can be described thus: MTT cell growth assay, 48 h. The class given is cell-based. As to conditions: Homo sapiens, 2000 cells/well, ±SE, read-out: IC50 from MTT assays. The protocol: as §6, §7, §8

T1 sequence (Q5VT25 whole entry): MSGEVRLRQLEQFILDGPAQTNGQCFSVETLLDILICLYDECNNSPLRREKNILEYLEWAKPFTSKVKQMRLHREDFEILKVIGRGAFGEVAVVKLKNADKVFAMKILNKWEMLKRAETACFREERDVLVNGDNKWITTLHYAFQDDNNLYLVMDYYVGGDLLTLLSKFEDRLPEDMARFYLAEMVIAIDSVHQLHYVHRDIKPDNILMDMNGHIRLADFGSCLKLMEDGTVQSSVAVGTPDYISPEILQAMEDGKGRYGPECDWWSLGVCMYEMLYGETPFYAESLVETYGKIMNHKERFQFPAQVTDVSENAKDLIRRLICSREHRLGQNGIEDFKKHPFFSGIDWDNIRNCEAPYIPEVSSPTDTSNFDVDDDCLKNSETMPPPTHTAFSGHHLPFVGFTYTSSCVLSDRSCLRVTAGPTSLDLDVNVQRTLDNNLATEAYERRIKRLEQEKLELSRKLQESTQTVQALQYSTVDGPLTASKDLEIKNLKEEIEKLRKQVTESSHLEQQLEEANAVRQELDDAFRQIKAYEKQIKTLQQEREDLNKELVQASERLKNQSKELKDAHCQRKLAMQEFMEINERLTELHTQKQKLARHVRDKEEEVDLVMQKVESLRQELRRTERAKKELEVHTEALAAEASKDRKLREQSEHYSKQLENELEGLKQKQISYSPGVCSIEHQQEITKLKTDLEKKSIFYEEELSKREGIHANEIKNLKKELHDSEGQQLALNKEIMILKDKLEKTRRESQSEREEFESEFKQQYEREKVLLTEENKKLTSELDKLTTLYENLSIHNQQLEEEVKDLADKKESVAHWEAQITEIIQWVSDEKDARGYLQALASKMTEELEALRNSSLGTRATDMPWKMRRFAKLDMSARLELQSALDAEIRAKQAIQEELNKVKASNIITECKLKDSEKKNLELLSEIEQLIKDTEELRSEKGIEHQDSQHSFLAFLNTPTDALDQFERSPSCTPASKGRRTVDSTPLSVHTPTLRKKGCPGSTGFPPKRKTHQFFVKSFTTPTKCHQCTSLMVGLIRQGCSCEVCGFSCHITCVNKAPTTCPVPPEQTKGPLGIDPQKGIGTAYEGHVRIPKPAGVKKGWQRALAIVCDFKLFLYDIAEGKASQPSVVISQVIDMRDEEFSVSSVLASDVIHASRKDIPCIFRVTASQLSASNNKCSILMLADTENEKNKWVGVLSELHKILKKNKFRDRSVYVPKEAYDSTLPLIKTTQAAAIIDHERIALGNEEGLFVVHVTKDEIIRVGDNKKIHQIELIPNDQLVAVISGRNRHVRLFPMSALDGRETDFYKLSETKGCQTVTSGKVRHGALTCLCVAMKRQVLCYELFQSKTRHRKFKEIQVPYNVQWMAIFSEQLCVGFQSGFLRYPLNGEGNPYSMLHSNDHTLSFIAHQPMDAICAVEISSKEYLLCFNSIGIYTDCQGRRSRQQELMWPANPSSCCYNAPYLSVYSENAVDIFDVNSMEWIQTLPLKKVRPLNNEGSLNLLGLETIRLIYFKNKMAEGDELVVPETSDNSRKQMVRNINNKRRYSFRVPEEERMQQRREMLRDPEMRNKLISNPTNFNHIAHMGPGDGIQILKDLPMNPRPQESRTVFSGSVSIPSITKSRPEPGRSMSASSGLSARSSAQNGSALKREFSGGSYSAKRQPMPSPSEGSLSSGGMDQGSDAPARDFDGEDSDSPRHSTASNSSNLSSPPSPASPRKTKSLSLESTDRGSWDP
T2 sequence (Q9Y5S2 whole entry): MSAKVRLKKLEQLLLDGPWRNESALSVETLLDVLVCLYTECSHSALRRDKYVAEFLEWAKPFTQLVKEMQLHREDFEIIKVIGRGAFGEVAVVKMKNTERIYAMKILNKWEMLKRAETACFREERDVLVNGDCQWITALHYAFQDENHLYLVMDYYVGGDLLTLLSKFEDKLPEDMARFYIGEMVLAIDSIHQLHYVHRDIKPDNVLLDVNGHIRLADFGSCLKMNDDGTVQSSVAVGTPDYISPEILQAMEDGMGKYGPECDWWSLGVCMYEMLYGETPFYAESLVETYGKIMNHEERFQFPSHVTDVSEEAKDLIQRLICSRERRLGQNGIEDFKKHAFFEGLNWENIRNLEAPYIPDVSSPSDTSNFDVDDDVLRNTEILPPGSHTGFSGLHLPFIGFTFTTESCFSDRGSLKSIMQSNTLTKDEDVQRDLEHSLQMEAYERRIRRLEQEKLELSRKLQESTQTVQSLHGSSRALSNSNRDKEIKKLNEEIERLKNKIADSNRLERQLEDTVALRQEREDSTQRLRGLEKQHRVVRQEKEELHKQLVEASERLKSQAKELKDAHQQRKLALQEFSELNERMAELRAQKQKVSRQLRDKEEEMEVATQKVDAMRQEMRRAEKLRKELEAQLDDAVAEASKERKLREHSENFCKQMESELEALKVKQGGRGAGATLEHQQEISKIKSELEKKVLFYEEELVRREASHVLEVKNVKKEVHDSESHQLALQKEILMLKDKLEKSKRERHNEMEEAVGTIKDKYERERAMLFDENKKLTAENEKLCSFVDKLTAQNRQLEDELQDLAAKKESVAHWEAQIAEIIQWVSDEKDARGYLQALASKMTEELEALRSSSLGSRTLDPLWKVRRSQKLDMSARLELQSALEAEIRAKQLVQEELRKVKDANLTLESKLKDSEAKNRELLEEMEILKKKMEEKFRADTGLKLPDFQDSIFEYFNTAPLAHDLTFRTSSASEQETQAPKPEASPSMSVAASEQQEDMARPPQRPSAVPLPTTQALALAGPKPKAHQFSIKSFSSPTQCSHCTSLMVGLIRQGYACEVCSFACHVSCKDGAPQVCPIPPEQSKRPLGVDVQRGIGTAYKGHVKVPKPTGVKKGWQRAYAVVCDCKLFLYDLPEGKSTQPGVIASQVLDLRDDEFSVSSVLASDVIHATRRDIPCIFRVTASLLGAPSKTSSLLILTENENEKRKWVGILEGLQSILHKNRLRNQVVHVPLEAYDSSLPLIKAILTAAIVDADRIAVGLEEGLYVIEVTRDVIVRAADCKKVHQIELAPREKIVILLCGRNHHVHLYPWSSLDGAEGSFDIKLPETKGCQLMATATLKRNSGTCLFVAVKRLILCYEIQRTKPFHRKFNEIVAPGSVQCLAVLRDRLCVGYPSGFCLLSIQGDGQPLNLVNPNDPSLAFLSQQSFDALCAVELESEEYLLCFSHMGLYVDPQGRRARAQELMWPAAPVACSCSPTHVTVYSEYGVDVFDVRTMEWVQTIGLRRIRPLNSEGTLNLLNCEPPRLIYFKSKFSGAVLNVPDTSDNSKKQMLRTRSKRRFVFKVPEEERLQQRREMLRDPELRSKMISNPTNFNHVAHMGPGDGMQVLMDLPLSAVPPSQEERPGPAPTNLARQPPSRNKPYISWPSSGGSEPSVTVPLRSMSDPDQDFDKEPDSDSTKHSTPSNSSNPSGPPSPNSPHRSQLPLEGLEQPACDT
Chain of ROCK1 (Q13464 whole entry): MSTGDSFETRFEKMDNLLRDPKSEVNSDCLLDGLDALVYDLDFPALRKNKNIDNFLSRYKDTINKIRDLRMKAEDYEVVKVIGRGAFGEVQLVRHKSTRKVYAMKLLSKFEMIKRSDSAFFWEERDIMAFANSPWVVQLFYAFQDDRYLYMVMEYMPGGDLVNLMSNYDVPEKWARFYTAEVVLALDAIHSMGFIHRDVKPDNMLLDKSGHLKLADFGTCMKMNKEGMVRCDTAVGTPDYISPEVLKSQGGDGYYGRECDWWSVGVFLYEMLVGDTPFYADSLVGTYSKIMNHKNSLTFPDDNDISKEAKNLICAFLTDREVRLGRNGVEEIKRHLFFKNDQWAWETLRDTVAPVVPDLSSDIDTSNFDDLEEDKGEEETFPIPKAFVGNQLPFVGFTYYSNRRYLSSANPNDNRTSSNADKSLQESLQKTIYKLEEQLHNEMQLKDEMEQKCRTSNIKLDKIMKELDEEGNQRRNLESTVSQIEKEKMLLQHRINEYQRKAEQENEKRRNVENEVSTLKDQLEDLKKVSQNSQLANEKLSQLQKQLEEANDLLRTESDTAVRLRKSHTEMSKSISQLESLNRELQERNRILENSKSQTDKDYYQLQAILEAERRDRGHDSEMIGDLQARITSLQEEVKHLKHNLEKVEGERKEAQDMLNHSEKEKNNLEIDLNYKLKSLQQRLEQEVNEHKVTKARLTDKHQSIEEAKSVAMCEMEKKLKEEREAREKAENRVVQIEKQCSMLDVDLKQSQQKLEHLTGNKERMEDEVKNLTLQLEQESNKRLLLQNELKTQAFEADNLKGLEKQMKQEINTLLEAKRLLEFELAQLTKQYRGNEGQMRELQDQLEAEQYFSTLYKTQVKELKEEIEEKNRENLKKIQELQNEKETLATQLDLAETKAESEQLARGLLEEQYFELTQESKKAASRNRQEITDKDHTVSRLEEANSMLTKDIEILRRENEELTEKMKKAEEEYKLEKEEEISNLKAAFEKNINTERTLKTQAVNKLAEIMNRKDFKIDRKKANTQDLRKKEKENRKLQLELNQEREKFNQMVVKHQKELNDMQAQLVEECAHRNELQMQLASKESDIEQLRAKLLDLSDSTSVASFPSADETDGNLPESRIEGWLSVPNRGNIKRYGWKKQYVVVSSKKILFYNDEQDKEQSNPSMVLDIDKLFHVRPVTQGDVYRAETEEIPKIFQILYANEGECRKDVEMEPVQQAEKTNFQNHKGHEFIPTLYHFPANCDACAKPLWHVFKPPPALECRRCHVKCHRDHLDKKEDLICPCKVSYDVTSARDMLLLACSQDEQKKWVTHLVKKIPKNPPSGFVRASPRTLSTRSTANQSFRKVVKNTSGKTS

As for `Cl.O=C1NC(=NCCc2ccccc2)SC1=Cc1c[nH]c2ncccc12` (mixture of isomers) [DJ4-HCl], the percent cell growth is reported as 25.6% in the data set on IGROV1; 0.8% in the data set on SK-MEL-28; −0.2% with SK-MEL-5; −3.0% in the data set on HOP-62; 18.5% with MDA-MB-435; 19.6% with NCI-H322M.

Usually IC50 stands for the concentration that inhibits the measured activity by half. As to `O=C1N/C(=N\CCc2ccccc2)S/C1=C/c1c[nH]c2ncccc12` [DJ4], in data set [1], the “solubility in 100% DMSO” value is recorded as “much better solubility”. Also, the “inhibition of kinase activity (qualitative immunoblot)” value (“inhibition of kinase activity” below) on MRCKα (0.1 µM) is listed as “ineffective”; against MRCKα (1 µM) it was “significantly inhibit”; against MRCKβ it was “significantly inhibit”; at ROCK1 (ROCK1, 0.1 µM) it was “ineffective”; at ROCK1 (ROCK1, 1 µM), “significantly inhibit”. For the same molecule, the percent cell growth with IGROV1 is recorded as 14.0%; in the data set with SK-MEL-28, 16.0%; with SK-MEL-5, 14.5%; in the data set on HOP-62, 19.9%; in the data set with MDA-MB-435, 21.0%; with NCI-H322M it was 5.2%. The IC50 in the data set on A549 is 5.4 ± 1.19 µM; with A375M it was 1.1 ± 0.15 µM.

Usually inhibition stands for the relative decrease from the control value, in per cent. As for `O=C1N/C(=N\Cc2ccccc2)S/C1=C/c1c[nH]c2ncccc12` [DJ110], in [1], the “solubility in 100% DMSO” value is reported as “poor solubility”. Also, the “inhibition of kinase activity” value was “significantly inhibited” at MRCKα (0.1 µM); “significantly inhibit” at MRCKα (1 µM); “significantly inhibit” against MRCKβ; “significantly inhibited” against ROCK1 (ROCK1, 0.1 µM); “significantly inhibit” on ROCK1 (ROCK1, 1 µM). Also, the inhibition at 1 µM at ROCK1 (ROCK1, 1 µM) is over 50%. Moreover, the IC50 turned out to be 0.88 ± 0.16 µM with A549 and 0.49 ± 0.03 µM in the data set with A375M.

As for `C=CC/N=C1\NC(=O)/C(=C\c2c[nH]c3ncccc23)S1` [DJ-Allyl], the “solubility in 100% DMSO” value in data set [1] is given as “much better solubility”. Also, the “inhibition of kinase activity” value against MRCKα (1 µM) is “minimal inhibition”; against MRCKβ it was “minimal inhibition”; on ROCK1 (ROCK1, 1 µM), “almost completely inhibited”. For the same molecule, at ROCK1 (ROCK1, 1 µM), the inhibition at 1 µM is over 50%. Also, the percent cell growth is recorded as 17.0% in the data set on IGROV1; −2.4% with SK-MEL-28; 2.0% in the data set with SK-MEL-5; −10.8% in the data set on HOP-62; 21.1% with MDA-MB-435; 10.2% with NCI-H322M. For the same molecule, the 50% inhibitory concentration (IC50) in the data set on A549 stood at 5 ± 2.2 µM; with A375M, 4.7 ± 0.52 µM.

Take `O=C1N/C(=N\CCN2CCOCC2)S/C1=C/c1c[nH]c2ncccc12` [DJ-Morpholine]: the “solubility in 100% DMSO” value in data set [1] is given as “poor solubility”. The “inhibition of kinase activity” value against MRCKα (1 µM) was “minimal inhibition”; against MRCKβ it was “minimal inhibition”; at ROCK1 (ROCK1, 1 µM), “almost completely inhibited”. Further, the inhibition at 1 µM on ROCK1 (ROCK1, 1 µM) is over 50%. Moreover, the IC50 in the data set on A549 and in the data set on A375M was over 10 µM each time.

Consider `CC/N=C1\NC(=O)/C(=C\c2c[nH]c3ncccc23)S1` [DJE4], for which the “solubility in 100% DMSO” value in data set [1] is reported as “much better solubility”. The “inhibition of kinase activity” value is recorded as “minimal inhibition” on MRCKα (1 µM); “minimal inhibition” on MRCKβ; “almost completely inhibited” against ROCK1 (ROCK1, 1 µM). For the same molecule, the inhibition at 1 µM on ROCK1 (ROCK1, 1 µM) was over 50%. Moreover, the percent cell growth in the data set with IGROV1 is reported as 21.7%; in the data set on SK-MEL-28, −17.2%; in the data set with SK-MEL-5, 9.2%; in the data set on HOP-62, −26.5%; with MDA-MB-435, −0.8%; in the data set with NCI-H322M, 5.8%. The IC50 is 6.1 ± 1.69 µM in the data set on A549 and 5.1 ± 0.32 µM in the data set with A375M.
